Reference: US6380249B1 (dated 2002)

O=C(O)C(=O)CC(=O)c1ccccc1OCc1ccccc1
melting point: 136 to 138 °C

O=C(O)C(=O)CC(=O)c1cccc(OCc2ccc(F)cc2)c1
melting point: 157 to 158 °C

O=C(O)C(=O)CC(=O)c1ccc2ccn(Cc3ccc(F)cc3)c2c1
melting point: 173 to 174 °C

O=C(O)C(=O)CC(=O)c1cccc2c1ccn2Cc1ccc(F)cc1
melting point: 156 to 157 °C

O=C(O)C(=O)CC(=O)c1cccc(OCc2ccc(F)c(F)c2)c1
melting point: 181 to 182 °C

COCCOc1c(OC)cc(Cc2ccccc2)cc1C(=O)CC(=O)C(=O)O
melting point: 83 to 85 °C

COc1cc(OCc2ccccc2)cc(C(=O)CC(=O)C(=O)O)c1
melting point: 101 to 102 °C

COc1cc(Cc2ccccc2)cc(C(=O)CC(=O)C(=O)O)c1OCCSC
melting point: 99 to 100 °C

O=C(O)C(=O)CC(=O)c1cc(Cc2ccccc2)cc2c1OCCO2
melting point: 154 to 155 °C

C=CCCCc1cc(OC)c(OC)c(C(=O)CC(=O)C(=O)O)c1
melting point: 75 to 76 °C

COc1cc(CC2CC2)cc(C(=O)CC(=O)C(=O)O)c1OC
melting point: 101 to 103 °C

O=C(O)C(=O)CC(=O)c1cc(Cc2ccccc2)cc2c1OCC(O)CO2 (racemic)
melting point: 182 to 183 °C
